Experimental data: patent US9254341B2, “Methods of manufacture of pteroyl-amino acid-fluorescent dyes” (On Target Laboratories, LLC, priority 2013, dated 2016)
Entries after “also recorded” stand apart in the source; their conditions may differ. Blank lines part the entries; values can stand above or below the compound they belong to.

How the values were obtained:
folate receptors = target: T1, folate receptors (Homo sapiens, UniProt P15328); assay: Competitive binding with [3H] folic acid on KB cells that overexpress FR-alpha; details: for Kd: read-out: dissociation constant (Kd); for Relative binding affinity: relative affinity of folic acid=1, molar ratio required to displace 50% of [3H] folic acid
T1 construct: KB cells that overexpress FR-α were seeded in 24-well (100,000 cells/well) Falcon plates; endogenous in cells; host or cells: KB cells (ATCC), grown in folate-free RPMI 1640
Experimental: (§1) KB cells (a human nasopharyngeal cell line) were obtained from American type culture collection (Rockville, Md.) and grown as a monolayer using folate free 1640 RPMI medium containing (Gibco, N.Y.) 10% heat-inactivated fetal bovine serum (Atlanta Biological, Ga.) and 1% penicillin streptomycin (Gibco, N.Y.) in a 5% carbon dioxide: 95% air-humidified atmosphere at 37° C. for at least six passages before they were used for the assays.
KB cells that overexpress FR-α were seeded in 24-well (100,000 cells/well) Falcon plates (BD Biosciences, Calif.) and allowed to form monolayers over a period of 12 hours. […] After incubating for 1 hour at 37° C., cells were rinsed with PBS (3×0.5 mL, Gibco, N.Y.) to remove any unbound radioactive materials. After adding 0.25 M sodium hydroxide (0.5 mL) and incubating for 12 hours at 4° C., cells were transferred into individual scintillation vials containing Ecolite scintillation cocktail (3.0 mL, MP Biomedicals, Ohio) and counted in a liquid scintillation analyzer (Packard). The relative binding affinities were calculated using a plot of % cell bound radioactivity versus the log concentration of the test article using GraphPad Prism 4.

[1] = Stability of OTL-0038 lyophilized product, achiral HPLC; type: physicochemical; details: for Achiral HPLC: Lyophilization 5 mg per ml, 2 ml fill, Water, 1 month; for loss of the lyophilized product: 40° C.; for stability of the lyophilized product: first month
Description: (§2) Stability data of Pte-L Tyrosine-S0456 (OTL-0038):

[2] = tested on: KB tumor xenografts (folate receptor positive); assay: Comparative whole body imaging and tissue biodistribution with folate derived near IR agents; type: in vivo; details: nude mice, KB tumors
Experimental: as §1
Athymic female nude mice (5 weeks old, 18-20 g) were purchased from Harlan Laboratories (Indianapolis, Ind.) and maintained on gamma-irradiated folate-deficient special diet (Teklad, Wis.) for at least 2 weeks before the start of the study. Animals were housed 5/cage in a barrier, pathogen-free cloaked rack. […]
(§3) Seven-week-old female nu/nu mice were inoculated subcutaneously with KB cells (1.0×10^6/mouse in folate free RPMI 1640 medium) on the shoulder. Growth of the tumors was measured In perpendicular directions every 2 days using a caliper (body weights were monitored on the same schedule), and the volumes of the tumors were calculated as 0.5×L×W (L=longest axis and W=axis perpendicular to L in millimeters). […]
(§4) Following whole body imaging, animals were dissected and selected tissues (heart, lung, liver, spleen, kidneys, stomach, small intestine, large intestine, muscle, skin, tumor) were analyzed for fluorescence activity using IVIS imager as before. […]

[3] = Stability of OTL-0038 liquid, achiral HPLC; type: physicochemical; details: for Achiral HPLC: Liquid 5 mg per ml, 2 ml fill, PBS, 1 month; for stability of the liquid: 5° C.
Experimental: as §2
At 40° C. the liquid lost 8.6% at 270 nm and 1% at 774 nm. At room temperature the liquid lost about 1.4% at 270 nm and 0.5% at 774 nm.

[4] = tested on: A549 tumor xenografts (folate receptor negative); assay: Whole body imaging and biodistribution in mice bearing folate receptor-negative tumor xenografts; type: in vivo
Experimental: as §1, with “A549” for “KB”, “alveolar basal epithelial carcinoma” for “human nasopharyngeal”, “using” for “using folate free”
Athymic female nude (nu/nu) mice (6 weeks old, 18-20 g) were purchased from Harlan Laboratories (Indianapolis, Ind.) and maintained on normal diet (Teklad, Wis.). Animals were housed 5/cage in a barrier, pathogen-free cloaked rack. Autoclaved tap water and food were given as needed. The animals were housed in a sterile environment on a standard 12 hours light-dark cycle for the duration of the study. Mice were identified individually by ear punch. All animal procedures were approved by Purdue Animal Care and Use Committee. Animal care and studies were performed according to national and international guidelines for the humane treatment of animals.
Seven-week-old female nu/nu mice were inoculated subcutaneously with A549 cells (1.0×10^6/mouse in RPMI 1640 medium) on the shoulder. Growth of the tumors was measured in perpendicular directions every 2 days using a caliper (body weights were monitored on the same schedule), and the volumes of the tumors were calculated as 0.5×L×W^2(L=longest axis and W=axis perpendicular to L in millimeters). Once tumors reached between 400 and 500 mm^3 in volume, animals (6 mice/group) were intravenously injected with 10 nmol of OTL-0038 in phosphate buffered saline (100 μL). After 2.5 h, animals were sacrificed by CO2 asphyxiation. Whole body imaging (intact tumor) experiments were then performed using a Caliper IVIS Lumina II Imaging Station with Living Image 4.0 software (PerkinElmer Inc, Mass.). Settings for imaging:-lamp level: medium; excitation: 745 nm; emission: ICG (indocyanine green); epi illumination; binning: 4 (M), FOV=12.5; f-stop=2; acquisition time=1 s.
Following whole body imaging, animals were dissected and selected tissues (heart, lung, liver, spleen, kidneys, stomach, small intestine, large intestine, muscle, skin, tumor) were analyzed for fluorescence activity using IVIS imager as before. Settings for imaging:-lamp level: medium; excitation: 745 nm; emission: ICG; epi illumination; binning: 4 (M), FOV=12.5; f-stop=2; acquisition time=1 s.

[5] = tested on: KB tumor xenografts (folate receptor positive); assay: Whole body imaging and tissue biodistribution in mice bearing folate receptor-positive tumor xenografts; type: in vivo; details: nude mice, KB tumors, 10 nmol intravenously, 2.5 hours
Experimental: as §1
Athymic female nude (nu/nu) mice (5 weeks old, 18-20 g) were purchased from Harlan Laboratories (Indianapolis, Ind.) and maintained on gamma-irradiated folate-deficient special diet (Teklad, Wis.) for at least 2 weeks before the start of the study. […]
as §3, with “in” for “In”, “0.5×L×W^2” for “0.5×L×W”
as §4

[6] = tested on: ovarian cancer malignant lesions; details: human ovarian cancer patients, intra-operative; cited from earlier work

T1 sequence (P15328 25-234): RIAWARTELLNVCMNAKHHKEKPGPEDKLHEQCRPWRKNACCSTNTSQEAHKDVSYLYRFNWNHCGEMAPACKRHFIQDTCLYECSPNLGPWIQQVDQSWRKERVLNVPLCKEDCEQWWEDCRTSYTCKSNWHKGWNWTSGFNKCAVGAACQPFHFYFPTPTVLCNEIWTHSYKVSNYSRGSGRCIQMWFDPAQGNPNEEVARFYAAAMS

- Kd (folate receptors): 81.8 nM
- Relative binding affinity (folate receptors): 0.09
Compound: CC1(C)C(=CC=C2CCCC(C=CC3=[N+](CCCCS(=O)(=O)[O-])c4ccc(S(=O)(=O)O)cc4C3(C)C)=C2Oc2ccc(C[C@@H](NC(=O)c3ccc(NCc4cnc5nc(N)[nH]c(=O)c5n4)cc3)C(=O)O)cc2)N(CCCCS(=O)(=O)O)c2ccc(S(=O)(=O)O)cc21 [OTL-0039, PTE-D-Tyr-S0456]
- affinity for folate receptor, comparison in words (folate receptors; KB cells): lower affinity for folate receptor when compared to folic acid and OTL-0038

- Achiral HPLC ([1]; 5, 270 nm): 95.88%
- Achiral HPLC ([1]; 5, 774 nm): 94.29%
- Achiral HPLC ([1]; 25, 270 nm): 94.43%
- Achiral HPLC ([1]; 25, 774 nm): 94.05%
- Achiral HPLC ([1]; 40, 270 nm): 87.17%
- Achiral HPLC ([1]; 40, 774 nm): 93.56%
- Achiral HPLC ([1]; −20, 270 nm): 95.80%
- Achiral HPLC ([1]; −20, 774 nm): 94.59%
- loss of the lyophilized product ([1]; 270 nm): 4.5%
- loss of the lyophilized product ([1]; 774 nm): 1.1%
- stability of the lyophilized product ([1]; room temperature): stable at the first month
- competition with [3H] folic acid (folate receptors; KB cells): competed well
- Kd (folate receptors): 10.4 nM
- Relative binding affinity (folate receptors): 0.71
- Achiral HPLC ([3]; 5, 270 nm): 95.88%
- Achiral HPLC ([3]; 5, 774 nm): 94.29%
- Achiral HPLC ([3]; 25, 270 nm): 94.43%
- Achiral HPLC ([3]; 25, 774 nm): 94.05%
- Achiral HPLC ([3]; 40, 270 nm): 87.17%
- Achiral HPLC ([3]; 40, 774 nm): 93.56%
- Achiral HPLC ([3]; −20, 270 nm): 95.80%
- Achiral HPLC ([3]; −20, 774 nm): 94.59%
- stability of the liquid ([3]; 270 nm): seems stable
- loss of the liquid ([3]; 40° C., 270 nm): 8.6%
- loss of the liquid ([3]; 40° C., 774 nm): 1%
- loss of the liquid ([3]; room temperature, 270 nm): about 1.4%
- loss of the liquid ([3]; room temperature, 774 nm): 0.5%
Compound: CC1(C)C(=CC=C2CCCC(C=CC3=[N+](CCCCS(=O)(=O)[O-])c4ccc(S(=O)(=O)O)cc4C3(C)C)=C2Oc2ccc(C[C@H](NC(=O)c3ccc(NCc4cnc5nc(N)[nH]c(=O)c5n4)cc3)C(=O)O)cc2)N(CCCCS(=O)(=O)O)c2ccc(S(=O)(=O)O)cc21 [OTL-0038, PTE-L-Tyr-S0456]
- stability of the lyophilized product ([1]; less than room temperature): stable at less than room temperature for the first month
- tumor fluorescence intensity, direct comparison ([2]; 10 nmol): brighter (higher) than the mice treated with the other folate-conjugated near IR dyes
- Whole body imaging: accumulation of fluorescence ([2]; 10 nmol intravenously, 2.5 hours): accumulated predominantly in the folate receptor positive tumors
- stability of the liquid ([3]; 774 nm): reasonably stable with a small degradation in purity
- tumor uptake (ex vivo fluorescence) ([4]; A549 folate receptor negative tumors, 10 nmol, 2.5 h): no fluorescence was observed in folate receptor negative tumors
- in vivo specificity for folate receptor ([4]; conclusion of the folate receptor-negative tumor study): highly specific for folate receptor
- kidney uptake (ex vivo fluorescence) ([4]; folate receptor-positive kidneys, 10 nmol, 2.5 h): high kidney uptake
- Whole body imaging: accumulation of fluorescence ([4]; nude mice, A549 tumors, 10 nmol intravenously, 2.5 h): did not accumulated in the folate receptor negative tumors
- Whole body imaging: accumulation of fluorescence [5]: accumulated predominantly in the folate receptor positive tumors, with no substantial fluorescence activity in the other tissues
- Tissue biodistribution: fluorescence in dissected tissues ([5]; ex vivo IVIS): highest fluorescence intensity was observed in FR-positive tumors with no accumulation in the other tissues except the kidneys; also recorded: mainly accumulated in folate receptor positive tumor xenografts and kidneys

Compound: folate-ethelenediamine-fluorescein isothiocyanate [EC17]
- malignant lesions removed with the aid of the dye than without it [6]: ~5 ×
